# Measurements from patent US9512420B2, “Use of N-acetylneuraminic acid aldolase in catalytic synthesis of N-acetylneuraminic acid” (Nanjing University of Technology, priority 2013, dated 2016).
# B1: CgNal (Corynebacterium glutamicum ATCC 13032) (protein)
# chain: MASATFTGVIPPVMTPLHADGSVDVESLRKLVDHLINGGVDGLFALGSSGEAAFLTRAQRKLALTTIIEHTAGRVPVTAGVIETTTARVIELVEDALEAGAEGLVATAPFYTRTHDVEIEEHFRKIHAAAPELPLFAYNIPVSVHSNLNPVMLLTLAKDGVLAGTKDSSGNDGAIRSLIEARDDAGLTEQFKILTGSETTVDFAYLAGADGVVPGLGNVDPAAYAALAKLCLDGKWAEAAALQKRINHLFHIVFVGDTSHMSGSSAGLGGFKTALAHLGIIESNAMAVPHQSLSDEETARIHAIVDEFLYTA
# Columns and labels:
# CgNal = CgNal (Corynebacterium glutamicum, UniProt Q8NMD2); assay: Effects of metal ions and surfactant on the CgNal activity; type: biochemical, Corynebacterium glutamicum ATCC 13032; settings: for effect on reaction of CgNal in the decomposing Neu5Ac direction / effect on reaction of CgNal in the synthesizing Neu5Ac direction: pH 7.5; for effect on superiority of Neu5Ac synthesis over Neu5Ac decomposition / overall effect on CgNal enzyme activity: pH 8.5
# [1] = substrate: CC(=O)N[C@@H]1C(O)O[C@H](CO)[C@@H](O)[C@@H]1O; assay: purified protein, by the assay type; settings: substrate of CgNal, co-substrate fixed at 100 mM for ManNAc and pyruvic acid, 37.0 °C
# [2] = substrate: CC(=O)C(=O)O; assay: purified protein, by the assay type; settings: substrate of CgNal, co-substrate fixed at 100 mM for ManNAc and pyruvic acid, 37.0 °C
# [3] = substrate: CC(=O)N[C@H]1[C@H]([C@H](O)[C@H](O)CO)OC(O)(C(=O)O)C[C@@H]1O; assay: purified protein, by the assay type; settings: substrate of CgNal, co-substrate fixed at 100 mM for ManNAc and pyruvic acid, 37.0 °C
molecule,measurement,setting,value
NiSO4,effect on reaction of CgNal in the decomposing Neu5Ac direction,CgNal,inhibited
same,effect on reaction of CgNal in the synthesizing Neu5Ac direction,CgNal,promoted
CCCCCCCCCCCCOS(=O)(=O)[O-].[Na+] [SDS],effect on reaction of CgNal in the decomposing Neu5Ac direction,CgNal; 5 mM additive,inhibited
same,effect on reaction of CgNal in the synthesizing Neu5Ac direction,CgNal; 5 mM additive,promoted
same,effect on superiority of Neu5Ac synthesis over Neu5Ac decomposition,CgNal; 5 mM additive,promoted
same,overall effect on CgNal enzyme activity,CgNal; 5 mM additive,decreased the enzyme activity
ZnCl2,effect on reaction of CgNal in the decomposing Neu5Ac direction,CgNal,inhibited
same,effect on reaction of CgNal in the synthesizing Neu5Ac direction,CgNal,promoted
same,effect on superiority of Neu5Ac synthesis over Neu5Ac decomposition,CgNal,promoted
same,overall effect on CgNal enzyme activity,CgNal,decreased the enzyme activity
CoCl2,effect on reaction of CgNal in the decomposing Neu5Ac direction,CgNal,inhibited
same,effect on reaction of CgNal in the synthesizing Neu5Ac direction,CgNal,promoted
CCCCCCCCCCCCCCCC[N+](C)(C)C.[Br-] [CTAB],effect on reaction of CgNal in the decomposing Neu5Ac direction,CgNal,inhibited
same,overall effect on CgNal enzyme activity,CgNal,decreased the enzyme activity
B1,Km,"[1]; other: pH 7.5, pH 7.5",53.3 mM
same,Vmax,"[1]; other: pH 7.5, pH 7.5",10.2 U/mg
same,Km,"[1]; other: pH 8.5, pH 8.5",92.1 mM
same,Vmax,"[1]; other: pH 8.5, pH 8.5",73.2 U/mg
same,Km,"[2]; other: pH 7.5, pH 7.5",14.7 mM
same,Vmax,"[2]; other: pH 7.5, pH 7.5",10.98 U/mg
same,Km,"[2]; other: pH 8.5, pH 8.5",72.4 mM
same,Vmax,"[2]; other: pH 8.5, pH 8.5",76.64 U/mg
same,Km,"[3]; other: pH 7.5, pH 7.5",33.5 mM
same,Vmax,"[3]; other: pH 7.5, pH 7.5",16.74 U/mg
same,Km,"[3]; other: pH 8.5, pH 8.5",87.7 mM
same,Vmax,"[3]; other: pH 8.5, pH 8.5",79.6 U/mg
